{
  "source": "patent US20100004248A1",
  "about": "“Use of a Nitric Oxide Synthase Modulator for the Treatment of Cardiac Indications” (priority 2005, published 2010)",
  "key": {"NOS3": {"molecular_target": "T1, NOS3 (Mus musculus, UniProt P70313)", "T1 construct": "from tissue; host or cells: mouse heart (myocardium) after sham or TAC surgery", "T1 sequence (P70313 2-1202 limits assumed)": "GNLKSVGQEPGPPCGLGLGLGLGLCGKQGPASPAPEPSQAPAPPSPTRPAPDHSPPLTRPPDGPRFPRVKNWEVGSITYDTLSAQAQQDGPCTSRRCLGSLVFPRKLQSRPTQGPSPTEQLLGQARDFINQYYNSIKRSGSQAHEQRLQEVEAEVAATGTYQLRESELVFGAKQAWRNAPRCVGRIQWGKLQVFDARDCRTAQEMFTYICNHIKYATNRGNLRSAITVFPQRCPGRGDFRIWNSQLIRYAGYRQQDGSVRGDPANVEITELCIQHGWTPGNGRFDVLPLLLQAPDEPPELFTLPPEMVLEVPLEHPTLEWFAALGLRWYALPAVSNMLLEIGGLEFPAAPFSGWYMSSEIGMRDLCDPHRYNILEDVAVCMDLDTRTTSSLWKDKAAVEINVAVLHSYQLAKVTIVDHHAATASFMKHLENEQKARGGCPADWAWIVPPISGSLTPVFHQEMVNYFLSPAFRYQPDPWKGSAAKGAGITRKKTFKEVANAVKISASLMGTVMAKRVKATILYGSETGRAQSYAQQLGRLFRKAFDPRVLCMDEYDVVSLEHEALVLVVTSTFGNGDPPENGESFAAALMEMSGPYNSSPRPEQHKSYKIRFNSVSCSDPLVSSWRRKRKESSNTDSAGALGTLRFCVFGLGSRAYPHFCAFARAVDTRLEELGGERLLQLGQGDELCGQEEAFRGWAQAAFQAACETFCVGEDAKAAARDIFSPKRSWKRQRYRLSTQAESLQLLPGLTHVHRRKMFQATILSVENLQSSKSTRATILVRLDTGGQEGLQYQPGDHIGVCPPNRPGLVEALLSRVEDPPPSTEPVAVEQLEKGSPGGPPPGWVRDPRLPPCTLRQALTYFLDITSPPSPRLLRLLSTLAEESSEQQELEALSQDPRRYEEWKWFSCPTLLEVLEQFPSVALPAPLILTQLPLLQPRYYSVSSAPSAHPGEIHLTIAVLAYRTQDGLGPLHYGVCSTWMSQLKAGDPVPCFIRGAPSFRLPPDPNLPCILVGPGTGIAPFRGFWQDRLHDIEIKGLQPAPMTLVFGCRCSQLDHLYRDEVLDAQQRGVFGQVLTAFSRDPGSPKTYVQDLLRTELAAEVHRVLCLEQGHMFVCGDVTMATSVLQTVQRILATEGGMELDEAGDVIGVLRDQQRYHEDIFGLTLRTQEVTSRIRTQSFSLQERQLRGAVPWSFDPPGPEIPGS", "test": "NOS3 dimer/monomer by low-temperature SDS-PAGE in TAC hearts", "type": "in vivo", "details": "WT mice, TAC 3 weeks, oral co-treatment", "protocol": "(§1) SDS-resistant NOS3 dimers and monomers were assayed using low-temperature SDS PAGE under reducing or non-reducing conditions, as described previously^7. NOS3 was immunoprecipitated as described^16 and the resulting samples added to fivefold Laemmli buffer (0.32 mol/l Tris-HCl, pH 6.8, 0.5 mol/l glycine, 10% SDS, 50% glycerol, and 0.03% bromophenol blue) in non-reducing gel (no 2-mercaptoethanol) to identify dimer dissociation due to reduced disulfide bridges. To provide fully denatured control lanes, samples were boiled for 15 minutes prior to loading. Electrophoresis was performed using Tris glycine 6% gels (Invitrogen Corp.), and gels and buffers maintained in an ice bath at 4° C. and stained (SimplyBlue, Invitrogen Corp.). Calcium dependent and independent NOS activity was determined from myocardial homogenates by [3H] L-arginine to [3H] citrulline conversion (Sigma-Aldrich) as described^16. An alternative approach involved more direct Western blot analysis without requiring initial NOS IP. Cold SDS-Page Western blot analysis was performed using a self-made […] SDS-Tris gel. After overnight running on ice, the gel was transferred for 3 h to nitrocellulose membrane. […] Bound antibodies were detected with horseradish peroxidase-conjugated anti-mouse IgG and visualize with an enhanced chemiluminescence detection system."}, "[1]": {"tested_on": "C57/BL6 WT mice subjected to TAC pressure overload", "test": "Body weight and heart weight in mice subjected to transverse aortic constriction (TAC)", "type": "in vivo, mouse", "details": "TAC 3 weeks, oral co-treatment 1 mg/g food, mean ± sem", "description": "Male NOS3 null mice (NOS3^−/−) and C57/BL6 WT controls (8-11 weeks, Jackson Labs, Bar Harbor, Me., USA) were used. Pressure overload was produced by transverse aorta constriction (TAC). Briefly, The aortic arch was isolated by entering the extrapleural space between the second and third rib, and afterwards the transverse aorta was isolated between the right and left carotid arteries. A 7-0 prolene suture ligature was tied around the transverse aorta against a 27-gauge needle to produce a 65-70% constriction after the removal of the needle. After closing the chest, animals were extubated, and a subcutaneous injection of morphine sulphate 0.2 mg, was administered before they returned to their cages. Animal's ventilatory and circulatory status was checked every 30 minutes during the first 2 hours. Sham-operated mice underwent the same operation except for aortic constriction. […] Animals were randomized to receive placebo or BH4 (120 mg/kg/d) for the next 5 weeks. At the end of the study, i.e. at 9 weeks, animal were sacrificed to receive tissue or underwent in vivo PV-loop analysis. […] Control mice were subject to sham operations, and animals were studied 3-9 weeks following surgery. […]"}, "NOS": {"tested_on": "NOS", "test": "Calcium dependent NOS activity, arginine to citrulline conversion, in myocardial homogenates of TAC hearts", "type": "in vivo, mouse", "details": "WT mice, TAC 3 weeks, oral co-treatment", "protocol": "as §1"}},
  "data": [
    {"smiles": "Nc1nc2c(c(=O)[nH]1)NC(C(O)C(O)CO)CN2", "note": "(stereo not drawn) [H4N, tetrahydroneopterin]", "values": [
      {"measurement": "NOS3 dimerization", "setting": "NOS3", "value": "unaltered"},
      {"measurement": "Heart Weight (HW)", "setting": "[1]", "value": "231.3 ± 10.7", "unit": "mg"},
      {"measurement": "Ca^2+-dependent NOS activity", "setting": "NOS", "value": "unaltered"}
    ]}
  ]
}
